Where two headings read alike, the source gives them in different places.

In data set [1] the target is σ receptors labelled by [^3H]DTG (σ1 + σ2). The data set can be described thus: Sigma receptor binding assay, [3H]DTG. To be noted: read-out: IC50 ± SEM [^3H]DTG (σ1 + σ2); guinea pig brain membranes; compounds 1-5 tested up to 10 µM. Here is the method: (§1) Filters were washed three times with 5 ml of ice-cold 10 mM Tris-HCI buffer (pH 8). The bound radioactivity was measured by liquid scintillation counting (Beckman Coulter™ LS6500). […] The values are expressed as the mean ± S.E.M of 2 - 4 independent experiments, each performed in duplicate.

Data set [2] deals with extracellular ACh concentration in the nucleus accumbens. To be noted: for 0AUC120 min (% increase x min) Mean ± SEM: 0 to 120 min; for Increase in ACh release (Peak increase as % of basal output): nucleus accumbens.
The target in the next data set is µ opioid receptor (Rattus norvegicus, UniProt P33535). The experiment in a line: Opioid receptor binding assay, [3H]DAMGO, rat brain membranes. More on the design: Membrane fractions were prepared from Sprague-Dawley rat or guinea pig brains; from tissue; host or cells: Sprague-Dawley rat brain (without cerebella) membranes; species or system Sprague-Dawley rat. Here is the method:
(§2) Briefly, brains without cerebella were homogenised on ice in 5 volumes of ice-cold 50 mM Tris-HCI buffer (pH 7.4) and diluted in 30 volumes of the same buffer. After centrifugation at 40,000 x g for 20 min at 4°C, the pellets were resuspended in 30 volumes of Tris-HCI buffer and incubated at 37 °C for 30 min (rat brain) or for 10 min (guinea pig brain). The centrifugation step was repeated and the final pellets were resuspended in 5 volumes of 50 mM Tris-HCI buffer (pH 7.4) containing 0.32 M sucrose to give a protein concentration of 4 - 6 mg/ml. Protein concentration was determined by the method of Bradford using bovine serum albumin as standard.
(§3) Binding experiments were performed in 50 mM Tris-HCI buffer (pH 7.4) in a final volume of 1 ml containing 0.3 - 0.5 mg protein and different concentrations of the compounds. […] Guinea pig brain membranes were incubated with [^3H]U69,593 (30 min, 30 °C). Non-specific binding was determined in the presence of 10 µM unlabeled naloxone. […] Inhibition constant (Ki) values were calculated from competition binding curves using GraphPad Prism (San Diego, CA, USA) program. The values are expressed as the mean ± S.E.M of 2-4 independent experiments, each performed in duplicate.
(§4) The morphinan-6-one compounds of the present invention were evaluated in in vitro receptor binding assays for their interaction abilities with µ, δ and k opioid receptors. […] The affinities of the compounds at k opioid receptors were determined by displacement of [^3H]U69,593 using guinea pig brain membranes.

Data set [3] concerns the target T1, electric eel AChE (EC 3.1.1.7) (Electrophorus electricus, UniProt O42275).
T1 construct: purchased Sigma-Aldrich, Germany
The experiment in a line: Spectrophotometric assay for AChE inhibitory activity (modified Ellman's method). Format: biochemical.

The target in data set [4] is T2, σ receptors labelled by [^3H](+)-pentazocine (σ1) (Cavia porcellus, UniProt Q60492).
T2 construct: from tissue; host or cells: guinea pig brain membranes
The experiment in a line: Sigma receptor binding assay, [3H](+)-pentazocine. More on the design: species or system guinea pig. Here is the method:
as §1

The next data set addresses T3, k opioid receptors (Cavia porcellus, UniProt P41144).
T3 construct: Membrane fractions were prepared from Sprague-Dawley rat or guinea pig brains; from tissue; host or cells: guinea pig brain (without cerebella) membranes
The experiment in a line: Opioid receptor binding assay, [3H]U69,593, guinea pig brain membranes. As to the method: as §2, §3, §4

The target in a further data set is T4, δ opioid receptors (Rattus norvegicus, UniProt P33533).
T4 construct: Membrane fractions were prepared from Sprague-Dawley rat or guinea pig brains; from tissue; host or cells: Sprague-Dawley rat brain (without cerebella) membranes
The data set can be described thus: Opioid receptor binding assay, [3H][Ile5,6]deltorphin II, rat brain membranes. More on the design: species or system Sprague-Dawley rat. Here is the method: as §2, §3, §4

A further data set relates to C57BL/6N female mice. The experiment in a line: Object recognition task.
The test system of data set [5] is frontal cortex synaptosomes. The experiment in a line: ACh release from synaptosomes (15 mM K+-evoked [3H]-ACh release, superfusion). Format: cell-based, male Sprague Dawley rats. The following applies: 0.1 to 100 µM. Here is the method: Preparation of synaptosomes: synaptosomes were prepared from brain frontal cortex of male Sprague Dawley rats (4 months old). The frontal cortex was rapidly dissected on ice and homogenized in 40 volumes of 0.32 M sucrose buffered at pH 7.4 with 0.01 M sodium phosphate. The homogenate was centrifuged at 1,000 g for 5 min. The crude synaptosomal pellet was obtained by centrifugation of the supernatant at 15,000 g for 20 min and was resuspended in 5 ml basal medium (125 mM Nacl, 3 mM KCI, 1.2 mM MgS04, 1.2 mM CaCl2, 1.0 mM NaH2PO4, 22 mM NaHCO3 and 10 mM glucose) which had been gassed with 95% O2 - 5% CO2 at 37 °C, pH 7.2 - 7.4.
Superfusion protocol: The synaptosomal suspension was incubated with [^3H]-choline (0.03 µM, 17.5x10^6 Bq/g) for 15 min at 37 °C. Then, the suspension was diluted (1:8) and aliquots were applied on filters in a continuous superfusion system with parallel chambers maintained at 37 °C. The media used for superfusion were basal medium and 15 mM K^+-containing stimulation medium. Both media were supplemented with ACh (1 µM) to facilitate the effectiveness of an allosteric potentiating ligand at the nicotine receptor and with atropine (0.1 µM) to block M2 presynaptic receptors. Synaptosomes were superfused with basal medium for 30 min to reach a constant outflow of [^3H]-ACh. Under these experimental conditions, the radioactivity released consisted largely of newly synthesized [^3H]-ACh. The K^+-stimulated release of [^3H]-ACh was determined in 2 subsequently collected fractions: 6 min basal release (superfusion with basal medium) and 6 min K^+-evoked release (superfusion for 1.5 min with 15 mM K^+-containing medium followed by […] basal medium). The test compounds galantamine, 4 and 2 were present in the superfusion medium concomitantly with 15 mM K^+ (for 1.5 min). Basal release of [^3H]-ACh (continuous superfusion with basal medium) was determined by collection of a 6 min sample followed by four subsequent 2 min samples. Aliquots of samples were mixed with scintillation liquid and the radioactivity quantified with a scintillation counter. The radioactivity bound to the filters was also measured.
Statistical analysis: The amount of [^3H]-ACh released in each sample was calculated as fraction of total synaptosomal tritium at the start of the respective collection period (tritium in the sample / sum of tritium in the respective fractions and in the synaptosomes on the filter). K^+-evoked release was expressed as percentage of basal release rate. Each n=1 represents the mean of an experiment with one synaptosomal preparation in at least 3 superfusion chambers. Statistical significance of group variances was calculated by one way ANOVA followed by Bonferroni's test.

T4 sequence (P33533 whole entry): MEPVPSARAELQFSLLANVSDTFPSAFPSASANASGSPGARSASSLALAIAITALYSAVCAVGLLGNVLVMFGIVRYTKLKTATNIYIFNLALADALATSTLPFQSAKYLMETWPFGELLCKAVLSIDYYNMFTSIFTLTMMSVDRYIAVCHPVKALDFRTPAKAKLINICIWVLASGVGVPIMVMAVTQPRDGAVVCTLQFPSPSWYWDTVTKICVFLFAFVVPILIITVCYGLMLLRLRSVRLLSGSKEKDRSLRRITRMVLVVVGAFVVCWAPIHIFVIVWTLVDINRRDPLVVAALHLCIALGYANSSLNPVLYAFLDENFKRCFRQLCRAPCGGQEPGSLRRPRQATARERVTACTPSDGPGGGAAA
Sequence of µ opioid receptor (P33535 whole entry): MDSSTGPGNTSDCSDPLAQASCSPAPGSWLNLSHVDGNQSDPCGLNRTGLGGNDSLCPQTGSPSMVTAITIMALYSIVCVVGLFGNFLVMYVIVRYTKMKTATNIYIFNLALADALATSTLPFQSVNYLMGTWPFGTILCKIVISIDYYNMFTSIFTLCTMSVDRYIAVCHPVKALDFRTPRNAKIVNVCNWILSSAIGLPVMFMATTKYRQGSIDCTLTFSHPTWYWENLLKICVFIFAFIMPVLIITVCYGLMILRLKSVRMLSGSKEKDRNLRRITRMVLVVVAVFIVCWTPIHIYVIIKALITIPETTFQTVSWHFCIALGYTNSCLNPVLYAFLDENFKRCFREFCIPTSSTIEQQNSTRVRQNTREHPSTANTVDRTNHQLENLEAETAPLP
T3 sequence (P41144 whole entry): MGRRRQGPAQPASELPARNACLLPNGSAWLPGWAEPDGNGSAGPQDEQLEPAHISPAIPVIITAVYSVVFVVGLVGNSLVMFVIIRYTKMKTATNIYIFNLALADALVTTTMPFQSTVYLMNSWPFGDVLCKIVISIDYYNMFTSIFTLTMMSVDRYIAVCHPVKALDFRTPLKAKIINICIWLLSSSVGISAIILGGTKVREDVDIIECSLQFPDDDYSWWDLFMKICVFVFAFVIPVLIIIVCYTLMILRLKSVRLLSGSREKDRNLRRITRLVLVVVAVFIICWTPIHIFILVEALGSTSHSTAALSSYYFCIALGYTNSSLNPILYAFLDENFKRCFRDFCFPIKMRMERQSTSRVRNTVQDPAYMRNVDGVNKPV
T1 sequence (O42275 24-633): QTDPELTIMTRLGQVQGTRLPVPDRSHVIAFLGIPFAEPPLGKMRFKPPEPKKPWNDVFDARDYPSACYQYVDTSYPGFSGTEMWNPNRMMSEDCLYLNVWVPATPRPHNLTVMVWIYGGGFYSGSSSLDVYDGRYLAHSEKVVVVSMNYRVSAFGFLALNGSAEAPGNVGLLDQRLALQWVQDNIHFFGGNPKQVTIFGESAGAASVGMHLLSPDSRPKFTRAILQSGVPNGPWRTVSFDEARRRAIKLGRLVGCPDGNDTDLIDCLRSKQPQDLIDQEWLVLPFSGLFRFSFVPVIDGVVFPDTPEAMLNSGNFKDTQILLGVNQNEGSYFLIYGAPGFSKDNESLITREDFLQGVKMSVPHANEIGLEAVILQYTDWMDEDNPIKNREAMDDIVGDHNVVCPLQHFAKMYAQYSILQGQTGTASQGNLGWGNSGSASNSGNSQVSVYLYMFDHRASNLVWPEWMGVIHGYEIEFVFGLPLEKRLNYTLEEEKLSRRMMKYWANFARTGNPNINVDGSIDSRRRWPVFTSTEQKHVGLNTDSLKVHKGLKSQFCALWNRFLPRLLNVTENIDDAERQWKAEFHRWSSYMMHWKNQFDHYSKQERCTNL
T2 sequence (Q60492 whole entry): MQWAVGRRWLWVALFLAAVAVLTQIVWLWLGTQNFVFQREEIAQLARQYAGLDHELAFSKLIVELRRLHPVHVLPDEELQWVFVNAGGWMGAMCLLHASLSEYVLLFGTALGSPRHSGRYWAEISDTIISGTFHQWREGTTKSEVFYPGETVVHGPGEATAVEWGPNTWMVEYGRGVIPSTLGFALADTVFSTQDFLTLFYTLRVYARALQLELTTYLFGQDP

As for `O=CN1CC[C@]23CC(=O)CC[C@H]2[C@H]1CC1=C3C(=O)C=CC1=O` [Compound 2, 1,4-dione-N-formylmorphinan-6-one], the IC50 (in general, the concentration that gives 50% inhibition) in data set [1] was greater than 0.01 µM; in data set [3] (96-well microplate, 1% DMSO, read-out: AChE inhibitory activity IC50), 12.7 µM; in [4], greater than 10 µM. Moreover, the “effect on ACh in the superfusate (in words)” value in data set [2] (0.5 µmol i.c.v.) is “short increase in ACh concentration followed by a decrease”. For the same compound, the “toxicity at higher doses” value in [2] (1 µmol and above, i.c.v., anaesthetized rats) is “could not be tested because of toxicity”. In addition, the “0AUC120 min (% increase x min) Mean ± SEM” value in data set [2] (Dose 0.5 µmol i.c.v.) came to 98 ± 27 % increase x min. Besides, in data set [2] (Dose 0.5 µmol i.c.v.), the “Increase in ACh release (Peak increase as % of basal output)” value was determined as 57 ± 14 %. Besides, the Ki (in general, a measure of affinity in units of concentration, obtained from inhibition or displacement) at µ opioid receptor ([3H]DAMGO, rat brain membranes, read-out: Opioid binding affinities Ki µ receptor) was greater than 10 µM; at µ opioid receptor (no specific binding, read-out: Ki, µ opioid receptor) it was greater than 10 µM; on k opioid receptors ([3H]U69,593, guinea pig brain membranes, read-out: Opioid binding affinities Ki κ receptor) it was greater than 10 µM; on k opioid receptors (no specific binding, read-out: Ki, k opioid receptor) it was greater than 10 µM; at δ opioid receptors ([3H][Ile5,6]deltorphin II, rat brain membranes, read-out: Opioid binding affinities Ki δ receptor), greater than 10 µM; on δ opioid receptors (no specific binding, read-out: Ki, δ opioid receptor), greater than 10 µM.

For the compound `O=CN1CC[C@]23c4c5cccc4OC2C(=O)CC[C@H]3[C@H]1C5` (stereo in doubt) [Compound 3, 4,5-epoxy-N-formylmorphinan-6-one], the IC50 in data set [1] is greater than 10 µM; in [3] it was 60.3 µM; in [4], greater than 10 µM. In addition, the “object recognition (memory)” value with C57BL/6N female mice (normal mice, 0.02 µmol i.c.v.) is given as “did not influence the object recognition”. Further, in the data set with C57BL/6N female mice (scopolamine-pretreated mice, dose not given), the “effect on scopolamine-induced impairment of object recognition” value is recorded as “ineffective”. For the same compound, the “effect on ACh in the superfusate (in words)” value in data set [2] (1 µmol i.c.v.) was “increased ACh release”; in [2] (2 µmol i.c.v.), “did not influence ACh up to 160 min followed by a decline thereafter”. The “0AUC120 min (% increase x min) Mean ± SEM” value is 410 ± 227 % increase x min in data set [2] (Dose 1 µmol i.c.v.) and 160 ± 140 % increase x min in data set [2] (Dose 2 µmol i.c.v.). Also, the entries for the “Increase in ACh release (Peak increase as % of basal output)” value in [2] (Dose 1 µmol i.c.v.) and in data set [2] (Dose 2 µmol i.c.v.) were 123 ± 91 % and 75 ± 73%, respectively. In addition, the inhibitory constant (Ki) on µ opioid receptor was greater than 10 µM; on µ opioid receptor (read-out: Opioid binding affinities Ki µ receptor, [3H]DAMGO, rat brain membranes) it was greater than 10 µM; on k opioid receptors, greater than 10 µM; on k opioid receptors (read-out: Opioid binding affinities Ki κ receptor, [3H]U69,593, guinea pig brain membranes), greater than 10 µM; on δ opioid receptors, greater than 10 µM; on δ opioid receptors (read-out: Opioid binding affinities Ki δ receptor, [3H][Ile5,6]deltorphin II, rat brain membranes), greater than 10 µM. The “effect on K+-evoked ACh release in frontal-cortex synaptosomes” value in [5] is recorded as “did not influence ACh release”.

(Values after patent EP2340832A1, “Morphinan-6-one compounds for the treatment or prevention of neurodegenerative diseases” (Universität Innsbruck, priority 2009, dated 2011).)
